Test results published in patent publication US20240277890A1, “ANTIMICROBIAL ARTICLES COMPRISING POLYURETHANE” (Amicoat AS, priority 2021, published 2024).
Values after ≈ are worked out from the molar mass of the structure shown.

Key:
[1] = system: Streptococcus agalactiae - antibiotic-susceptible clinical isolate
[2] = system: EMRSA15 Staphylococcus aureus (MRSA) - SSCmec type 4; details: EMRSA15 - SSCmec type 4
[3] = system: Staphylococcus aureus ATCC 25923 - antibiotic-susceptible control strain
[4] = system: Staphylococcus aureus ATCC 43300 - methicillin-resistant control strain
[5] = system: Corynebacterium jeikeium - multi-drug resistant clinical isolate
[6] = system: Streptococcus bovis - macrolide-resistant clinical isolate
[7] = system: Moraxella catarrhalis - β-lactamase positive clinical isolate
[8] = system: Staphylococcus aureus FDA486; experiment: Murine skin infection model, one day topical treatment; assay type: in vivo, mice; details: cream or gel containing 2% (w/w) of compound; three topical treatments at three hourly intervals; compared to placebo
Experimental: (§1) The skin of mice was infected with Staphylococcus aureus or Streptococcus pyogenes and subsequently given a total of three treatments at three hourly intervals. Three hours after the last treatment, skin biopsies were collected and the number of colony forming units (CFUs) present in the skin sample was determined. Results are shown in FIGS. 3, 4 and 5 expressed as the number of colony forming units per mouse.

[9] = system: Streptococcus pyogenes CS301; experiment: as above; assay type: in vivo, mice
Experimental: as §1

[10] = system: Trichophyton mentagrophytes - G.R. Micro collection
[11] = system: Candida (Issatchenkia) krusei ATCC6258 - reference strain
[12] = system: Staphylococcus saprophyticus - antibiotic susceptible clinical isolate
[13] = system: Staphylococcus aureus ATCC 29213 - antibiotic-susceptible control strain; details: ATCC 29213
[14] = system: Pseudomonas aeruginosa - multi-drug resistant clinical isolate
[15] = system: Staphylococcus aureus, strain ATCC 25923; details: ATCC 25923
[16] = system: Methicillin resistant Staphylococcus aureus (MRSA) strain ATCC 33591; details: ATCC 33591
[17] = system: Staphylococcus aureus - methicillin-resistant clinical isolate
[18] = system: Candida tropicalis ATCC750 - reference strain
[19] = system: Staphylococcus epidermidis methicillin-resistant clinical isolate
[20] = system: Corynebacterium jeikeium - antibiotic-susceptible clinical isolate
[21] = system: Cryptococcus neoformans - G.R. Micro collection
[22] = system: Staphylococcus epidermidis antibiotic susceptible clinical isolate
[23] = system: Enterococcus gallinarum vancomycin-resistant (VanC) clinical isolate
[24] = system: HT2001254 Staphylococcus aureus (MRSA) - PVL positive; details: HT2001254 S. aureus (MRSA) PVL positive
[25] = system: EMRSA3 Staphylococcus aureus (MRSA) - SSCmec type 1; details: EMRSA3 - SSCmec type 1
[26] = system: Staphylococcus haemolyticus - antibiotic susceptible clinical isolate
[27] = system: Methicillin resistant Staphylococcus epidermidis (MRSE) strain ATCC 27626; details: ATCC 27626
[28] = system: Moraxella catarrhalis - reduced fluoroquinolone susceptibility clinical isolate

With `CC(C)NC(=O)[C@H](CCCNC(=N)N)NC(=O)[C@H](Cc1c(C(C)(C)C)[nH]c2c(C(C)(C)C)cc(C(C)(C)C)cc12)NC(=O)[C@@H](N)CCCNC(=N)N` [Compound 7] the MIC [1] was 8 mg/L (≈ 11 µM), the MIC [2] was 8 mg/L (≈ 11 µM) and the MIC [3] was 8 mg/L (≈ 11 µM). For the same compound, the MIC [4] was 8 mg/L (≈ 11 µM), the MIC [5] was 8 mg/L (≈ 11 µM) and the MIC [6] was 8 mg/L (≈ 11 µM). The MIC [7] was 4 mg/L (≈ 5.51 µM), the “number of CFUs in skin biopsy” value [8] was “the number of CFUs was reduced” and the “number of CFUs in skin biopsy” value ([9]; 1% or 2% gel, three topical treatments at three hourly intervals, compared to placebo gel and bactroban) was “more effective at reducing the number of CFUs from a Streptococcus pyogenes CS 301 infection than the placebo gel or the bactroban”. The “number of CFUs in skin biopsy, 2% gel versus 1% gel” value ([9]; gel containing 2% compared to gel containing 1%) was “more effective than the gel containing only 1% of compound 7”, the MIC [10] was 8 mg/L (≈ 11 µM) and the MIC [11] was 8 mg/L (≈ 11 µM). The MIC [12] was 2 mg/L (≈ 2.75 µM), the MIC [13] was 8 mg/L (≈ 11 µM) and the MIC [14] was 8 mg/L (≈ 11 µM). For the same compound, the “S. aureus (MIC)” value [15] was <2 mg/L, the “MRSA (MIC)” value [16] was <2 mg/L and the MIC [17] was 8 mg/L (≈ 11 µM). For the same compound, the MIC [18] was 4 mg/L (≈ 5.51 µM), the MIC [19] was 4 mg/L (≈ 5.51 µM) and the “S. pyogenes (MIC)” value (S. pyogenes) was <2 mg/L. The MIC [20] was 8 mg/L (≈ 11 µM), the MIC [21] was 8 mg/L (≈ 11 µM) and the “P. aeruginosa (MIC)” value (P. aeruginosa) was 7 mg/L. The MIC [22] was 4 mg/L (≈ 5.51 µM), the MIC [23] was 8 mg/L (≈ 11 µM) and the “E. coli (MIC)” value (E. coli) was 7 mg/L. The MIC [24] was 8 mg/L (≈ 11 µM), the MIC [25] was 8 mg/L (≈ 11 µM) and the MIC [26] was 4 mg/L (≈ 5.51 µM). The “C. albicans (MIC)” value (C. albicans) was 25 mg/L, the “MRSE (MIC)” value [27] was <2 mg/L and the MIC [28] was 8 mg/L (≈ 11 µM).
